# Laboratory results reported in patent US20070107143A1, “Oxidative treatment of hair with reduced hair damage” (priority 2001, published 2007).
# Like-named read-outs stand apart in the source and are kept apart here.
# Legend:
# [1] = Hydrogen Peroxide Decomposition Ratio Measurement Protocol; settings: for Hydrogen Peroxide Decomposition Ratio (% Loss) / Peroxide % at t = 0 / Peroxide % at t = 30mn: pH 10, 300 ppm copper sulphate, 0.026M chelant; for Hydrogen Peroxide Decomposition Ratio (% Loss): after 30 minutes
# Method: The Hydrogen Peroxide Decomposition Ratio Measurement Protocol is defined as follows: 6.0% by weight of concentrated ammonium hydroxide (30% active ammonia) is added to deionised water and the pH of the solution is adjusted to 10 using acetic acid. 300 ppm of copper sulphate and 0.026M of the chelant to be tested are added to said composition. […] The initial level of hydrogen peroxide is measured at this moment (t=0); the final level of hydrogen peroxide is measured after 30 minutes. The value of the ratio of the hydrogen peroxide concentration at t=0 and at t=30 mn is the Hydrogen Peroxide Decomposition Ratio (% Loss).
# The initial and final level of hydrogen peroxide can be measured according to any standard technique. The following is a well-known and standard technique that was used by the inventors: 0.2-0.3 g (the exact quantity being precisely measured) of the solution to be titrated is added to 40 ml of 10% acetic acid. […] The level of hydrogen peroxide (% Peroxide) is then calculated from the following equation: [formula]
# Three replicate runs are made at both t=0 and t=30 mn and then averaged to calculate the Hydrogen Peroxide Decomposition Ratio (% Loss).
# [2] = FT-IR Damage Assessing Protocol after 5-Cycle Oxidative Hair Treatment Protocol With 2 Intermediate Washes; set-up: species or system human; settings: for Damage after 5 cycles (cysteic acid units): 2 intermediate washes, pH 10
# Method: For each chelant tested, seven switches of virgin dark hair were used. […] The switches usually weighed about 1.5 g each and are treated stepwise according to the following protocol.
# A bleaching composition comprising the chelant to be tested is prepared by mixing in equal weight amounts a hydrogen peroxide emulsion base and an alkaline (high pH) emulsion base.
# 2 g Of the bleaching composition per g of hair to be treated was applied on the hair switches and massaged in thoroughly. The hair switches were then wrapped in a plastic film and put in an oven at 30° C. After 30 mn, they were removed from the oven and from the wrapping film and rinsed for 1 mn in water. 0.1 g of shampoo per g. of hair was then added and milked for 30 s at a rate of at least 150 strokes a minute before rinsing for 30 s. […] The concentration of copper (Cu^2+) ions was kept at about 1 ppm (+/−10%), the exact concentrations being measured by a standard analytic method. The rinsing water flow was adjusted to 6 liters per minute). The same shampooing and rinsing process was repeated another time (this is the “Oxidative Hair Treatment Protocol With 2 Intermediate Washes” referred to in the claims) or 9 additional times (this is the “Oxidative Hair Treatment Protocol With 10 Intermediate Washes” referred to in the claims) depending on the Damage Assessment Protocol used. The excess water was then squeezed out of the hair, and the hair dried with a fan. Any standard shampoo can be used in this protocol as long as it is free from transition metal ions such as copper ion and that the level chelants is less than 0.1% by weight of the shampoo. Prell® shampoo was using during these tests.
# This Oxidative Hair Treatment Protocol can be repeated several times. […] This process is described as a 5-Cycle Oxidative Hair Treatment Protocol With 2 or 10 Intermediate Washes.
# In particular, these authors have shown that the method is suitable for quantifying the amount of cysteic acid that is produced from the oxidation of cystine. In general, the oxidation of cystine is thought to be a suitable marker by which to monitor the overall oxidation of the keratinous part of the fiber.
# They have shown that this technique is more suitable than using the FT-IR method in simple transmission or microscope modes. […] The detailed description of the method used for testing the different damage inhibitors follows thereafter:
# A Perkin Elmer Spectrum® 1 Fourier Transform Infrared (FTIR) system equipped with a diamond Attenuated Total Internal Reflection (ATR) cell was used to measure the cysteic acid concentration in human hair. In this method, hair switches of various sizes and colours can be used. The switches were platted (˜1 plait per cm) in order to minimize variations in surface area of contact between readings. The Oxidative Hair Treatment Protocol described above was repeated for 5 cycles to mimic the behavior of hair after repeated bleaching cycles. Following this treatment, four readings per switch were taken (˜⅓ and ⅔ s down the switch on both sides), and an average calculated. Backgrounds were collected every 4 readings, and an ATR cell pressure of 1N/m was employed. The cell was cleaned with ethanol between each reading, and a contamination check performed using the monitor ratio mode of the instrument. […] The original spectra were initially converted to absorbance, before being normalized to the 1450 cm^−1 band (the characteristic and invariant protein CH2 stretch). This normalized absorbance was then twice derivatised using a 13 point averaging. The value of the 1450 cm^−1 normalized 2nd derivative of the absorbance at 1040 cm^−1 was taken as the relative concentration of cysteic acid. This figure was multiplied by −1×10^−4 to recast it into suitable units. […] The following instrumental conditions were employed:
# The weight percentages for each chelant are indicated in the first line of the table below.
# [3] = Goniophotometer Damage Assessing Protocol after Oxidative Hair Treatment Protocol With 10 Intermediate Washes; set-up: species or system human
# Method: A bleaching composition comprising the chelant to be tested is prepared by mixing in equal weight amounts a hydrogen peroxide emulsion base and an alkaline (high pH) emulsion base. 2 g Of the bleaching composition per g of hair to be treated was applied on the hair switches and massaged in thoroughly. The hair switches were then wrapped in a plastic film and put in an oven at 30° C. […] The rinsing water flow was adjusted to 6 liters per minute). […] The excess water was then squeezed out of the hair, and the hair dried with a fan. […] Prell® shampoo was using during these tests. This Oxidative Hair Treatment Protocol can be repeated several times.
# [4] = 25deg, 0.1M ionic strength; fully deprotonated chelants; cited from earlier work
# [5] = 25deg, 0.1M ionic strength; fully deprotonated chelants; cited from earlier work; remark: listed apart in the source
# [6] = tetra-protonated chelants; cited from earlier work
# [7] = log Conditional Stability Constant at pH 10 with Cu; settings: for Ratio Cu/Ca of log Conditional Stability Constants: log KCuL / log KCaL
# [8] = log Conditional Stability Constant at pH 10 with Ca
# [9] = not given; remark: listed apart in the source
# [10] = 1.9% weight on-head, tri-sodium salt, 5 cycles
# [11] = 2.0% weight on-head (tetra-sodium EDTA, di-sodium HEDP), 5 cycles
# [12] = 3.8% weight on-head, tetra-sodium salt, 5 cycles
SMILES,Hydrogen Peroxide Decomposition Ratio (% Loss) [1],Peroxide % at t = 0 [1],Peroxide % at t = 30mn [1],"log K (stability constant, 1:1 complex) Cu [4]","log K (stability constant, 1:1 complex) Ca [5]",log protonation constant H2L^2− [6],log protonation constant H3L^− [6],log protonation constant H4L [6],log protonation constant HL^3− [6],log Conditional Stability Constant (pH 10) Cu [7],Ratio Cu/Ca of log Conditional Stability Constants [7],log Conditional Stability Constant (pH 10) Ca [8],"Damage after 5 cycles (cysteic acid units) [2, 11]",also measured
"CC(C(=O)O)N(CC(=O)O)CC(=O)O (stereo not drawn) [MGDA, methylglycinediacetic acid]",11.3%,3.498%,3.104%,–,–,–,–,–,–,–,–,–,–,–
"O=C(O)CC(NCCNC(CC(=O)O)C(=O)O)C(=O)O (stereo not drawn) [EDDS, ethylenediamine-N,N′-disuccinic acid]",1.5%,3.150%,3.104%,18.35,4.58,6.84,3.86,2.95,10.01,16.04,3.76,4.27,–,"Hair damage compared with any other chelant (in words) ([2]; 1.9% by weight, 5 cycles): much less damage; Damage benefit vs EDTA 2% [2, 10]: +33%; Damage after 5 cycles (cysteic acid units) [2, 10]: 110 cysteic acid units; Damage benefit (in words) ([2]; concentrations much lower than 1.9% by weight on head): excellent benefits; Normalized shine ratio (hair treated after 9 cycles/ virgin hair) ([3]; 0.95 weight %, tri-sodium salt): 1.03"
"O=C(O)CN(CCN(CC(=O)O)CC(=O)O)CC(=O)O [EDTA, ethylenediaminetetraacetic acid]",–,3.576%,3.573%,18.78,10.65,–,–,–,–,16.37,–,–,165 cysteic acid units,"Capacity at inhibiting the red-ox chemistry of copper (in words) ([1]; lab condition, de-ionized water): very good capacity; Damage prevention properties (in words) ([2]; real conditions of use, high copper and Ca^2+ concentrations): very poor damage prevention properties; Damage benefit (in words) ([2]; unless utilized at levels much higher than 0.1%): very little benefits"
"O=C(O)CC(NCC(O)CNC(CC(=O)O)C(=O)O)C(=O)O (stereo not drawn) [HPPDS, 2-hydroxypropylenediamine-N,N′-disuccinic acid]",–,–,–,–,–,–,–,–,–,–,–,–,–,"Normalized shine ratio (hair treated after 9 cycles/ virgin hair) ([3]; 0.97 weight %, tetra-sodium salt): 1.00"
"O=P(O)(O)CN(CCN(CP(=O)(O)O)CP(=O)(O)O)CCN(CP(=O)(O)O)CP(=O)(O)O [DTPMP, diethylene-triamine-penta-(methylenephosphonic acid)]",–,3.078%,2.964%,–,–,–,–,–,–,–,–,–,–,"Damage benefit vs EDTA 2% [2, 12]: +14%; Damage after 5 cycles (cysteic acid units) [2, 12]: 142 cysteic acid units; log Conditional Stability Constant (pH 10) Cu: 15.14; log Conditional Stability Constant (pH 10) Ca [9]: 4.74"
"CC(O)(P(=O)(O)O)P(=O)(O)O [HEDP, 1-hydroxyethane-1,1-diphosphonic acid]",32.3%,4.126%,2.792%,11.84,6.0,6.88,2.53,1.8,10.8,8.98,1.75,5.13,163 cysteic acid units,"Damage benefit vs EDTA 2% ([2]; 2.0% weight on-head, di-sodium salt, 5 cycles): +1%; Normalized shine ratio (hair treated after 9 cycles/ virgin hair) ([3]; 1.0 weight % (tetra-sodium EDTA, di-sodium HEDP)): 0.730"
